# Measurements: PMC6748449, “HupA, the main undecaprenyl pyrophosphate and phosphatidylglycerol phosphate phosphatase in Helicobacter pylori is essential for colonization of the stomach” (PLoS Pathogens, 2019)
# Key:
# LpxE (HP0021) = LpxE (HP0021) (Helicobacter pylori, UniProt O24866); experiment: phosphate release, malachite green; format: biochemical; conditions: 50 uM substrate, 0.2% DDM, pH 7.4, 37 °C
# LpxF (HP1580) = target: T1, LpxF (HP1580) (Helicobacter pylori, UniProt O26100); experiment: phosphate release, malachite green; format: biochemical; conditions: 50 uM substrate, 0.2% DDM, pH 7.4, 37 °C; very low activity
# T1 construct: gene HP_1580
# T1 sequence (O26100 entry or part of it): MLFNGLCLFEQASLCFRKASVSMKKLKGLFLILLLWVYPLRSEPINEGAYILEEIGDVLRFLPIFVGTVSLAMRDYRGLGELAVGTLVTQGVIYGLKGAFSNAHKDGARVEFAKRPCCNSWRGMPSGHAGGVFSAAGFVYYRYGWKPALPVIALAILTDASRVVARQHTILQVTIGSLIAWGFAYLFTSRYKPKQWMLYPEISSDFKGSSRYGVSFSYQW
# Sequence of LpxE (HP0021) (O24866 whole entry): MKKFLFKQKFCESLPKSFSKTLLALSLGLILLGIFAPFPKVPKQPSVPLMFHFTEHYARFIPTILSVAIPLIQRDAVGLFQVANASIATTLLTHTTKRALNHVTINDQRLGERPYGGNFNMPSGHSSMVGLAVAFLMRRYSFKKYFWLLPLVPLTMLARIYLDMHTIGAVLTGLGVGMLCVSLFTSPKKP
smiles,measurement,setting,value
CC(C)=CCC/C(C)=C/CC/C(C)=C/COP(=O)(O)OP(=O)(O)O [C15-PP],"phosphate release, malachite green",LpxE (HP0021),"LpxE had similar substrate specificity as HupA, except for C5-PP"
same,"phosphate release, malachite green",LpxF (HP1580),LpxF only showed very low activity towards C15-PP and PGP
